# Data as given in patent US10653717B2, “Antibiotic compositions” (priority 2016, dated 2020).
# Where two headings read alike, the source gives them in different places.
# Columns and labels:
# [1] = tested on: KP-2: K. pneumonia subsp. pneumonia 0322#; assay: MIC of silver with antibiotics on clinical isolated MDR Gram-negative bacteria; type: cell-based, Klebsiella pneumonia; conditions: antibiotic 4 μM
# Description: There are five clinically most difficult-to-treat MDR Gram-negative pathogen species: Klebsiella pneumonia, Acinetobacter baumannii, Pseudomonas aeruginosa, Enterobacter cloacae and Escherichia coli. One strain from each species was isolated, and overnight cultures were diluted 1:1000 times in LB medium, and treated with serial concentrations of Ag^+ and antibiotics in combinations for 24 h (Table 10).
# Five clinical isolated MDR Gram-negative strains were grown until an OD600 nm of 0.4, and were diluted 1:1,000 into 100 μl LB medium in 96 micro-well plates. […] The cultures treated with the same serial dilutions of 100 μl ebselen and silver nitrate were used as the positive control.
# [2] = tested on: ECO-1: Escherichia coli 1139#
# Description: (§1) There are five most difficult-to-treat MDR Gram-negative pathogen species in the clinic, which are also typical GSH-positive bacteria: Klebsiella pneumonia, Acinetobacter baumannii, Pseudomonas aeruginosa, Enterobacter cloacae and Escherichia coli. Two strains of each species were isolated, overnight cultures were diluted 1:1000 times in LB medium, and treated with Ag^+ with a serial concentration of ebselen in combination for 16 h. […] Among these five species, A. baumannii and E. cloacae are very readily formed drug-resistant strains, which are needed to be treated by or the fourth-generation cephalosporin in the clinic, including imipenem, cefepime, and cefotaxime, etc.
# (§2) Ten clinical isolated MDR Gram-negative (GSH-positive) strains were grown until an OD600 nm of 0.4 and were diluted 1:100 into 100 μl of LB medium in 96 micro-well plates. Serial dilutions of 100 μl ebselen and AgNO3 were added to the individual wells. […] The culture treated with 0.8% (v/v) DMSO was used as a control.
# ECO-2: E. coli 2219# = tested on: ECO-2: E. coli 2219#
# Description: as §1, §2
# [3] = tested on: KP-1: Klebsiella pneumoniae subsp. pneumoniae 13#
# Description: as §1, §2
# [4] = tested on: KP-2: K. pneumoniae subsp. pneumoniae 0322#
# Description: as §1, §2
# E. coli Trx1 = E. coli Trx1 (Escherichia coli, UniProt P0AA25)
# Description: (§3) Since ebselen is a known reversible competitive inhibitor of bacterial TrxR, the effect of Ag^+ on the activity of E. coli TrxR and Trx was investigated.
# (§4) Inhibition of recombinant bacterial TrxR by Silver was performed by using E. coli enzyme. The experiments were performed with 96 micro-well plates in the solution containing 50 mM Tris.HCl (pH 7.5), 200 μM NADPH, 1 mM EDTA, 1 mM DTNB, in the presence of 5 μM E. coli Trx. The absorbance at 412 nm was measured for 5 min with a VERSA micro-well plate reader and the slope of initial 2 min was used to represent TrxR activity. The Trx activity was detected by this method, coupled with the use of 100 nM E. coli TrxR instead of 5 μM E. coli Trx in the reaction mixture.
# E. coli TrxR = E. coli TrxR (Escherichia coli, UniProt P0A9P4)
# Description: as §3, §4
# reduced E. coli Trx1 = reduced E. coli Trx1 (Escherichia coli, UniProt P0AA25); conditions: excitation 280 nm
# Sequence of reduced E. coli Trx1 (P0AA25 whole entry): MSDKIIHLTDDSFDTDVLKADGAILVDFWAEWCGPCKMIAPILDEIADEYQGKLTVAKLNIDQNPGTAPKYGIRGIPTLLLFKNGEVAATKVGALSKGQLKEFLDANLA
# Description: Pure recombinant 100 nM TrxR, and 5 μM Trx mixture were incubated with AgNO3 solution in the presence of 200 μM NADPH, and then their activities were detected by DTNB reduction assay. FIG. 4B is a fluorescent spectra of a complex between reduced E. coli 10 μM Trx1 with AgNO3. Reduced 10 μM E. coli Trx1 protein was incubated with a serial concentration of AgNO3 solution and the fluorescent spectra was detected with an excitation wavelength at 280 nm. Oxidized Trx1 (Trx-S2) was used as a control. […] After the treatment described in (B), Trx activity was assayed by a DTNB method in the presence of E. coli Trx1. […] Silver-inhibited E. coli Trx1 was passed through a desalting column to remove small molecules and then Trx activity was measured. E. coli Trx1 without the inhibition was used as a control.
# Fluorescent Spectra of reduced E. coli Trx with Silver were recorded at 10 μM in a PerkinElmer Enspire multilabel recorder using an excitation at 280 nm.
# Sequence of E. coli Trx1 (P0AA25 2-109): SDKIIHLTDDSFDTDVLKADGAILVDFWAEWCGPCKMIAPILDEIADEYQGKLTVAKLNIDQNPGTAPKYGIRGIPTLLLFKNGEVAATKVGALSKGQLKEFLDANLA
# Sequence of E. coli TrxR (P0A9P4 2-321 limits assumed): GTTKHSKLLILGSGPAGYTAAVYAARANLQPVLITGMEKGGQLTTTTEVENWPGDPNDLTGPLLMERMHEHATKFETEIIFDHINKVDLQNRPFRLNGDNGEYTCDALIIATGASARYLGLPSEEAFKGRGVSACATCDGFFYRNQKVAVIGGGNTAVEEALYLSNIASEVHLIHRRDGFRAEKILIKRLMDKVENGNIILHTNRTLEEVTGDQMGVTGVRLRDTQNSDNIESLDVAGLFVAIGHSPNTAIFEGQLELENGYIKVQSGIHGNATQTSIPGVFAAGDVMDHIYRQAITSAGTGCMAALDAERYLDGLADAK
smiles,measurement,setting,value
"O=c1c2ccccc2[se]n1-c1ccccc1 [ebselen, 2-phenyl-1,2-benzisoselenazol-3(2H)-one]",MIC of silver in the presence of different antibiotics,[1],40 µM
"O=[N+]([O-])[O-].[Ag+] [silver, silver nitrate]",MIC of silver in the presence of ebselen,[2]; Ebselen 0 μM,40 µM
same,MIC of silver in the presence of ebselen,[2]; Ebselen 1 μM,20 µM
same,MIC of silver in the presence of ebselen,[2]; Ebselen 2 μM,10 µM
same,MIC of silver in the presence of ebselen,[2]; Ebselen 4 μM,5 µM
same,MIC of silver in the presence of ebselen,ECO-2: E. coli 2219#; Ebselen 0 μM,80 µM
same,MIC of silver in the presence of ebselen,ECO-2: E. coli 2219#; Ebselen 1 μM,80 µM
same,MIC of silver in the presence of ebselen,ECO-2: E. coli 2219#; Ebselen 2 μM,40 µM
same,MIC of silver in the presence of ebselen,ECO-2: E. coli 2219#; Ebselen 4 μM,10 µM
same,MIC of silver in the presence of ebselen,[3]; Ebselen 0 μM,80 µM
same,MIC of silver in the presence of ebselen,[3]; Ebselen 1 μM,80 µM
same,MIC of silver in the presence of ebselen,[3]; Ebselen 2 μM,40 µM
same,MIC of silver in the presence of ebselen,[3]; Ebselen 4 μM,10 µM
same,MIC of silver in the presence of ebselen,[4]; Ebselen 0 μM,80 µM
same,MIC of silver in the presence of ebselen,[4]; Ebselen 1 μM,40 µM
same,MIC of silver in the presence of ebselen,[4]; Ebselen 2 μM,20 µM
same,MIC of silver in the presence of ebselen,[4]; Ebselen 4 μM,20 µM
same,reversibility of the inhibition of Trx1,E. coli Trx1; Trx1 activity after desalting,irreversible
same,activity of Trx,"E. coli Trx1; along with the increase of Ag^+ concentration, 10 μM Trx1",decreased
same,inhibitory efficiency toward TrxR,E. coli TrxR; in the presence of reduced E. coli Trx1,decreased
same,IC50,"E. coli TrxR; read-out: IC50 on E. coli TrxR, 100 nM NADPH-pre-incubated E. coli TrxR",~50 nM
same,tryptophan fluorescence intensity of 10 μM Trx1,reduced E. coli Trx1; 1-10 μM Ag^+,increased the tryptophan fluorescence intensity
same,fluorescent intensity of 10 μM Trx1,reduced E. coli Trx1; 20-100 μM Ag^+,decreased
